From PubChem BioAssay AID1996
Converted amounts (≈) assume the structure as drawn.

details: buffer; pH 7.4; 200.0 µM

| solubility kinetic [µg/mL] | Compound |
| --- | --- |
| 44.9 (≈ 119 µM) | O=C(O)CC1(CC(=O)NCc2csc(-c3cccs3)n2)CCCCC1 |
| 1.7 (≈ 5.72 µM) | COC(=O)c1c(C)[nH]c(C(=O)/C=C/c2ccc(C)cc2)c1C |
| 1.8 (≈ 6.78 µM) | Cc1cc(C(=O)Nc2ccc3ccccc3c2)c(C)o1 |
| 45.7 (≈ 134 µM) | CC(C)Cn1c(-c2cccnc2)nc2c1c(=O)[nH]c(=O)n2CC(C)C |
| > 51.2 | Cc1ccc(C)c(NC(=O)CSc2nccn2Cc2ccco2)c1 |
| > 42.8 | Nc1nc(-c2ccc(NC(=O)c3ccco3)cc2)cs1 |
| > 31.8 | Cc1c(-c2nc3ccccc3[nH]2)cnn1C |
| > 65 | O=C(O)C(Cc1ccccc1)N1C(=O)c2c(Cl)c(Cl)c(Cl)c(Cl)c2C1=O (stereo not given) |
| 33.2 (≈ 104 µM) | Cc1ccc(C(=O)CN2C(=O)NC3(CCCCC3C)C2=O)s1 (stereo not given) |
| > 52 | CCC12CN3CCN(CC(C3)/C1=N\NC(=O)c1ccc(Cl)cc1)C2 |
| > 18.2 | NC(=O)c1ccccc1 |
| > 40.8 | C=CCn1cccc(C(=O)Nc2ccc(F)cc2)c1=O |
| 4.4 (≈ 13.8 µM) | O=C(CN1CCN(c2ccccc2)CC1)c1c[nH]c2ccccc12 |
| 30.6 (≈ 118 µM) | O=[N+]([O-])c1ccc(SCCc2ccccn2)cc1 |
| 24.3 (≈ 120 µM) | Fc1ccc(CNc2ccccn2)cc1 |
| 12.6 (≈ 47.7 µM) | COc1ccc(Nc2cc(C)c3ccccc3n2)cc1 |
| 13.6 (≈ 34.5 µM) | COc1ccc(C(=O)NCC(=O)OCCOc2ccc(Cl)cc2)cc1OC |
| 31.5 (≈ 126 µM) | CN1CCN(C(=O)c2ccccc2[N+](=O)[O-])CC1 |
| 33.7 (≈ 95.7 µM) | O=C(Nc1ccccc1-c1ccccc1)c1ccccc1Br |
| > 45.8 | O=C(CNC(=O)c1ccccc1F)N/N=C/c1cccs1 |

| solubility kinetic [µg/mL] | Compound |
| --- | --- |
| > 49.3 | CS(=O)(=O)N(CC(=O)N1CCCCCC1)c1cccc(F)c1 |
| > 41.9 | Cc1cc(C)cc(NS(=O)(=O)c2ccc(F)cc2)c1 |
| 1.8 (≈ 5.79 µM) | Cc1cc(C)c(S(=O)(=O)Nc2ccc(Cl)cn2)c(C)c1 |
| 11.6 (≈ 42.6 µM) | CC1CCc2c(C(=O)Nc3ccccn3)csc2C1 (stereo not given) |
| 1.2 (≈ 4 µM) | COc1ccc(NC(=O)Nc2ccc3c(c2)OCO3)c(C)c1 |
| 23.1 (≈ 82.1 µM) | COc1cccc(/C=N/c2nc3ccccc3n2C)c1O |
| 0.9 (≈ 2.85 µM) | O=C(NCc1ccc2c(c1)OCO2)Nc1ccc([N+](=O)[O-])cc1 |
| > 48.2 | COCCNC(=O)C(OC(=O)c1ccco1)c1ccccc1F (stereo not given) |
| 5.6 (≈ 21.8 µM) | Cc1sc2ncn(-c3ccccc3)c(=O)c2c1C |
| > 51.1 | COC(=O)c1ccccc1NC(=O)CCn1c(=O)oc2ccccc21 |
| > 37.4 | CC1(C)c2cc(O)ccc2OC1N1CCOCC1 (stereo not given) |
| > 56.2 | O=C(C1=C(O)C(=O)N(CCOCCO)C1c1ccccn1)c1cccs1 (stereo not given) |
| < 0.1 | Cc1cccc(Nc2nc(NCc3ccco3)nc(N)c2[N+](=O)[O-])c1 |
| 19.2 (≈ 82.9 µM) | O=C(Nc1ccccc1Cl)c1ccccc1 |
| > 38.4 | Cc1cc(C)c(Nc2ncccc2C(=O)O)c(C)c1 |
| > 42.8 | Cc1cccc(C(=O)N/C(=C\c2ccc(C)o2)C(=O)O)c1 |
| 6.6 (≈ 20.2 µM) | O=C(Nc1cc2c3c(c1)CC(=O)N3CCC2)c1ccc(Cl)cc1 |
| > 45.5 | CCOc1ccccc1/C=C\c1nc(O)c([N+](=O)[O-])c(=O)[nH]1 |
| 48.6 (≈ 150 µM) | COc1cccc(OC)c1OCCOCCN1CCN(C)CC1 |
| 0.3 (≈ 1.03 µM) | Cc1ccc(-c2cc(=O)[nH]c(NCc3ccccc3)n2)cc1 |

| solubility kinetic [µg/mL] | Compound |
| --- | --- |
| 3.1 (≈ 8.9 µM) | Cc1ccccc1CSc1ccc(S(=O)(=O)N2CCCC2)cn1 |
| > 50.3 | O=C(O)c1ccc(C(=O)Nc2cccc3ccccc23)c(C(=O)O)c1 |
| > 48.1 | NS(=O)(=O)c1ccc(CNc2ncnc3sccc23)cc1 |
| 21.7 (≈ 78.8 µM) | Cc1cc(C)cc(C(=O)OCC(=O)NC2CCCC2)c1 |
| > 52.6 | COc1cc(C(=O)NC2CC(C)(C)NC(C)(C)C2)cc(OC)c1OC |
| > 51.2 | NS(=O)(=O)c1ccc(CCNC(=S)NC2CCCCC2)cc1 |
| > 44.3 | CN1CCN(c2ccc(NC(=O)c3ccccc3)cc2)CC1 |
| 17.6 (≈ 66.3 µM) | N#Cc1c(-c2ccccc2)ccnc1N1CCOCC1 |
| 32 (≈ 107 µM) | COc1ccc(CCC(C)NCc2ccccc2OC)cc1 (stereo not given) |
| > 38.3 | Cc1nc2oc3ccccc3c(=O)c2cc1C(=O)O |
| > 38.5 | COc1cc2[nH]c(Cl)c([N+](=O)[O-])c2cc1OC |
| 0.7 (≈ 2.28 µM) | CC(C)(C)C(=O)CSc1ncnc2sc3c(c12)CCC3 |
| > 52.6 | C=CCN1CCN(c2ccncc2S(=O)(=O)N2CCCCC2)CC1 |
| > 50.8 | CCOC(=O)C1=C(CCl)NC(=O)NC1c1ccc2c(c1)OCO2 (stereo not given) |
| 42.9 (≈ 129 µM) | COCCNC(=O)CN1C(=O)NC2(CCOc3ccccc32)C1=O (stereo not given) |
| > 45.2 | CC1Cc2ccccc2N1C(=O)CN1CCC(C(N)=O)CC1 (stereo not given) |
| > 49.7 | CNC(=O)c1ccccc1S(=O)c1ccccc1COC(C)=O (stereo not given) |
| > 47.3 | CC1(C)CC(=O)C2=C(C1)NC(=O)NC2c1ccc([N+](=O)[O-])cc1 (stereo not given) |

| Compound | solubility kinetic [µg/mL] |
| --- | --- |
| Cl.FC(F)(F)c1cccc(C2NCc3ccccc3-n3cccc32)c1 (stereo not given) | 3.9 |
| CCn1ccnc1CN1CCCC(C(=O)c2cc(C)c(OC)c(C)c2)C1 (stereo not given) | 47.6 (≈ 134 µM) |
